Common to all, as to type: functional
Details in all cases: K12, 24 h

The test system of test [1] is Escherichia coli. Kind of test: Antibacterial activity against Escherichia coli K12 in M9 minimal medium after 24 hrs by broth dilution method. In general terms: Dilution methods test growth across graded concentrations, often in twofold steps.
Test [2] has as its system Escherichia coli. In words: Antibacterial activity against Escherichia coli K12 in M9 minimal medium after 24 hrs by broth dilution method in presence of beta-alanine.
Test [3] concerns Escherichia coli. Kind of test: Antibacterial activity against Escherichia coli K12 in tryptone broth after 24 hrs by broth dilution method.
Test [4] deals with Escherichia coli. Kind of test: Antibacterial activity against Escherichia coli K12 in M9 minimal medium after 24 hrs by broth dilution method in presence of pantothenate.

≈ marks a conversion by molar mass, not a printed value.

Turning to `CCCCCNC(=O)CCNC(=O)[C@H](O)C(C)(C)CO`, the MIC (in general, the lowest concentration found to suppress growth) with Escherichia coli [1] came to 6 µM (≈ 1.73 µg/mL); in the test with Escherichia coli [2] it was 250 µM; against Escherichia coli [3] it was 50 µM (≈ 14.4 µg/mL); in the test with Escherichia coli [4], 500 µM.
As for `CCOC(=O)NCCNC(=O)CCNC(=O)[C@H](O)C(C)(C)CO`, the minimum inhibitory concentration (MIC) with Escherichia coli [1] and against Escherichia coli [3] was greater than 500 µM in each case.
`C#CCCCNC(=O)CCNC(=O)[C@H](O)C(C)(C)CO`: the minimal inhibitory concentration (MIC) is 15 µM (≈ 4.27 µg/mL) in the test with Escherichia coli [1], greater than 500 µM in the test on Escherichia coli [2], greater than 500 µM against Escherichia coli [3] and greater than 500 µM with Escherichia coli [4].
Take `CCCNC(=O)CCNC(=O)[C@H](O)C(C)(C)CO`: the minimal inhibitory concentration (MIC) in the test with Escherichia coli [1] came to 1 µM (≈ 0.26 µg/mL); in the test on Escherichia coli [2], 250 µM; with Escherichia coli [3], 500 µM (≈ 130 µg/mL); in the test with Escherichia coli [4], 500 µM.
With `C#CCCCCNC(=O)CCNC(=O)[C@H](O)C(C)(C)CO`, the minimum inhibitory concentration (MIC) was 500 µM (≈ 149 µg/mL) in the test with Escherichia coli [1] and greater than 500 µM in the test with Escherichia coli [3].
Take `C#CCNC(=O)[C@H](O)C(C)(C)CO`: the MIC in the test with Escherichia coli [1] is 500 µM (≈ 92.6 µg/mL); in the test with Escherichia coli [3], greater than 500 µM.
For `C#CCNC(=O)CCNC(=O)[C@H](O)C(C)(C)CO`, the MIC against Escherichia coli [1] was 4 µM (≈ 1.03 µg/mL); with Escherichia coli [2], greater than 500 µM; against Escherichia coli [3] it was greater than 500 µM; in the test on Escherichia coli [4], greater than 500 µM.
For `CCC(=O)NCCNC(=O)CCNC(=O)[C@H](O)C(C)(C)CO`, the MIC with Escherichia coli [1] and against Escherichia coli [3] was greater than 500 µM throughout.
On to `C=CCNC(=O)CCNC(=O)[C@H](O)C(C)(C)CO`, for which the MIC is 3 µM (≈ 0.775 µg/mL) against Escherichia coli [1], 125 µM with Escherichia coli [2], greater than 500 µM against Escherichia coli [3] and 250 µM with Escherichia coli [4].
Take `CCC(=O)OCCNC(=O)CCNC(=O)[C@H](O)C(C)(C)CO`: the values for the MIC against Escherichia coli [1] and with Escherichia coli [3] were 500 µM (≈ 159 µg/mL) and greater than 500 µM, respectively.
For `C#CCCNC(=O)CCNC(=O)[C@H](O)C(C)(C)CO`, the MIC was 7.5 µM (≈ 2.03 µg/mL) against Escherichia coli [1], greater than 500 µM in the test on Escherichia coli [2], greater than 500 µM against Escherichia coli [3] and greater than 500 µM in the test with Escherichia coli [4].
Consider `C=CC(=O)NCCNC(=O)CCNC(=O)[C@H](O)C(C)(C)CO`, for which the figures for the MIC in the test with Escherichia coli [1] and with Escherichia coli [3] were 500 µM (≈ 158 µg/mL) and greater than 500 µM, respectively.
For the compound `C#CC(=O)NCCNC(=O)CCNC(=O)[C@H](O)C(C)(C)CO`, the MIC against Escherichia coli [1] and against Escherichia coli [3] was greater than 500 µM throughout.
In the case of `CC(C)(CO)[C@@H](O)C(=O)NCCC(=O)NCCN=[N+]=[N-]`, the MIC against Escherichia coli [1] and with Escherichia coli [3] was greater than 500 µM throughout.
On to `C#CCCC(=O)NCCNC(=O)CCNC(=O)[C@H](O)C(C)(C)CO`, for which the MIC in the test with Escherichia coli [1] and in the test with Escherichia coli [3] was greater than 500 µM throughout.
